Ends that are not written are not given here.
Experiments:
[1] = test system: GABARAP subfamily proteins (GABARAP-L1, GABARAP-L2); assay: NMR titration of 15N-labelled GABARAP proteins with PLEKHM1-LIR peptide; format: binding, human; settings: 298 K, 0.18 mM 15N-labelled protein, up to two times peptide excess
Method: (§1) All NMR experiments were performed at 298 K on Bruker Avance spectrometers operating at proton frequencies of 500, 600 and 700 MHz. Titration experiments were performed with a 0.18 mM ^15N‐labelled LC3 and GABARAP protein samples to which the non‐labelled PLEKHM1‐LIR peptide was added stepwise until four times excess to LC3 proteins or two times excess to the GABARAP proteins. Backbone HN resonances for selected mATG8 proteins in complex with the PLEKHM1‐LIR peptide were assigned using [^15N‐^1H]‐TROSY versions of 3D HNCACB experiment. For assignment of PLEKHM1‐LIR peptide backbone HN resonances in complexes with the LC3 and GABARAP proteins, [^15N‐^1H]‐TROSY versions of 3D HNCACB experiment and hCcconh‐TOCSY experiment were used.

GABARAP = target: T1, GABARAP (Homo sapiens, UniProt O95166); assay: ITC titration of PLEKHM1-LIR peptides into GABARAP; format: binding; settings: ITC; for ΔH: VP-ITC, one-site model, 0.4 mM peptide into 0.020 mM protein, 50 mM Na2HPO4, 100 mM NaCl; for K D of GABARAP lower compared to LC3B / specificity GABARAP over LC3B: GABARAP vs LC3B
T1 construct: modified Ub-leader (ubiquitin fusion leader) (N); made in house; host or cells: E. coli NEB T7 Express
Method: (§2) The genes for the truncated LC3A^2–121, LC3C^8–125, GABARAP^2–117 and GABARAP‐L1^2–117 proteins were cloned into pET30ΔSE vector between the BamHI and XhoI sites using previously established protocols 38. The chimeric constructs of the PLEKHM1‐LIR attached to the LC3A, GABARAP and GABARAP‐L1 proteins were prepared by inserting the oligonucleotide sequence corresponding to the PLEKHM1‐LIR peptide (P^629[…]^638) and glycine–serine linker into the BamHI site of the pET30ΔSE vector, placing the PLEKHM1‐LIR at the N‐terminal of the mature chimeric protein (similar to 31, 38). For the expression of human LC3 and GABARAP proteins for ITC and NMR experiments, plasmids with appropriate modified Ub‐leaders in pET vectors were used 39. Gene, encoding PLEKHM1‐LIR peptide, was ordered as synthetic oligonucleotides (Eurofins Genomics GmbH) and cloned into the pET39_Ub63_ vector 39 by NcoI–BamHI restriction sites. After TEV cleavage, the resulting peptide has the amino acid sequence GAMG‐P^629[…]^642, where the first four residues (GAMG) are the cloning artefact.
(§3) The chimeric constructs were expressed as a His‐tag fusion protein in E. coli BL21(DE3) cells. The cells were induced with 0.3 mM IPTG at OD600 0.6 for 16 h at 26°C. The cell pellets were lysed using mechanical sonication in lysis buffer (20 mM Tris–HCl pH 9.0, 100 mM NaCl, 10 mM imidazole, supplemented with 0.1% Triton X‐100). The proteins were purified using Ni‐NTA beads (GE Healthcare) and the His‐tag was cleaved using thrombin (Invitrogen) at room temperature for 16 h. The last step was gel filtration chromatography using a Superdex S200/300 GL column (GE Healthcare). The proteins were concentrated using spin concentrators (Vivaspin). For ITC and NMR studies, the non‐labelled and stable isotopes labelled LC3 and GABARAP proteins were obtained based on the protocols described elsewhere 30, 39. Here, E. coli NEB T7 Express culture transformed with corresponding plasmids were grown till OD600 nm = 1.0 and protein expression was induced with 0.2 mM IPTG. The cultures were incubated at 25°C for 8–12 h before cell harvesting. Isolation and purification procedures were similar to those reported in Ref. 22, 40. Before experiments, all proteins and peptides were equilibrated with a buffer containing 50 mM Na2HPO4, 100 mM NaCl at pH 7.0, and supplied with 5 mM protease inhibitor cocktail.
(§4) The protocol for preparation of non‐labelled and ^13C,^15N‐labelled PLEKHM1‐LIR peptide was slightly modified to achieve highest yield of the peptide. The 50 ml M9 culture was inoculated with NEB T7 cell transformed with pET39_Ub63‐PLEKHM1‐LIR plasmid and grown overnight at 37°. The collected cells were resuspended in 2 l of either LB or M9 media contained 1.5 g ^15N‐labelled NH4Cl and 3.0 g of ^13C‐labelled glucose. The cultures were grown at 37° till A(600 nm) = 0.9 and supplied with 1 mM of IPTG to induce Ub63‐PLEKHM1‐LIR overexpression (3 h at 37°). After that cells were harvested by centrifugation, re‐suspended in buffer contained 50 mM Tris–HCl pH = 7.9, 200 mM NaCl, 5% glycerol, 0.1 mg/ml DNase A and 4 mM protease inhibitor cocktail. After cell lysis by French press, debris was removed by centrifugation and clear supernatant was applied onto the column contained Ni‐NTA Sepharose equilibrated with the loading buffer (50 mM Tris–HCl pH = 7.9, 250 mM NaCl, 1% glycerol and 20 mM imidazole). Elution was performed with 400 mM imidazole in the same buffer. An aliquot of pure Ub63‐PLEKHM1‐LIR fractions was further purified by gel filtration on Superdex75 26 × 60 column for control ITC and analytical size exclusion chromatography experiments, remaining fusion protein was processed with the TEV‐protease and PLEKHM1‐LIR peptide was purified to 95% purity by reverse Ni‐NTA chromatography and followed gel filtration on Superdex75 26 × 60 column. Peak maximum of peptide was detected at […] (void volume 115 ml). Pure peptide was concentrated in Amicon concentrators with cut‐off of 3 kDa (> 95% retention). […]

[2] = test system: endogenous PLEKHM1:GABARAP complex; assay: Peptide competition in immunoprecipitation of endogenous PLEKHM1; settings: Plekhm1 +/+ MEF lysate, 50 μM peptide, cells treated 4 h KU-0063794 (10 μM) + chloroquine (20 μM); Fig 2D
[3] = test system: LC3 subfamily proteins (LC3A, LC3B); assay: NMR titration of 15N-labelled LC3 proteins with PLEKHM1-LIR peptide; format: binding, human; settings: 298 K, 0.18 mM 15N-labelled protein, up to four times peptide excess
Method: as §1

LC3C = target: T2, LC3C (Homo sapiens, UniProt Q9BXW4); assay: ITC titration of PLEKHM1-LIR peptide into LC3C; format: binding; settings: 25°C, pH 7.0
T2 construct: modified Ub-leader (ubiquitin fusion leader) (N); made in house; host or cells: E. coli NEB T7 Express
Method: as §2, §3, §4

[4] = 25°C, pH 7.0, listed as PLEKHM1-LIR

T1 sequence (O95166 whole entry, the tested form may be a part): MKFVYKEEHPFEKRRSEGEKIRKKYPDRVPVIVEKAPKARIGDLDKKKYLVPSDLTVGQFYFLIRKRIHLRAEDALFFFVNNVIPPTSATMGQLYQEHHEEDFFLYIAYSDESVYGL
T2 sequence (Q9BXW4 whole entry, the tested form may be a part): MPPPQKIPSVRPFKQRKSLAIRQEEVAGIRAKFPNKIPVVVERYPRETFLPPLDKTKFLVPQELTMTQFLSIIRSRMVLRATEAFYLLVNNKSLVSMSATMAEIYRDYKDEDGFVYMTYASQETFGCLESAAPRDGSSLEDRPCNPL

In the case of GAMGPQQEDEWVNVQYPD [PLEKHM1‐LIR WT], the “exchange behaviour upon titration, GABARAP subfamily” value [1] is reported as “slow exchange”, the ΔH (GABARAP; 25°C, pH 7.0) is reported as -10.6 ± 0.1 kcal/mol and the ΔH (GABARAP; [4]) is reported as -10.60 ± 0.1 kcal/mol. The KA (GABARAP; 25°C, pH 7.0) was 1.8 ± 0.1 ×10^6 M^−1, the “N (number of binding sites)” value (GABARAP; 25°C, pH 7.0) was 1.00 ± 0.01 and the ΔG (GABARAP; 25°C, pH 7.0) was -8.54 kcal/mol. The ΔS (GABARAP; 25°C, pH 7.0) was −6.92 cal mol^−1 K^−1, the “−T × ΔS” value (GABARAP; 25°C, pH 7.0) was “+2.06 kcal mol^−1” and the KA (GABARAP; [4]) was 1.8±0.1 ×10^6 M^−1. For the same sequence, the ΔG (GABARAP; [4]) was -8.54 kcal/mol, the ΔS (GABARAP; [4]) was -6.92 cal mol^−1 K^−1 and the “K D of GABARAP lower compared to LC3A (times)” value (GABARAP; GABARAP vs LC3A) was “approximately eight”. The “K D of GABARAP lower compared to LC3B / specificity GABARAP over LC3B” value (GABARAP) was 11 fold, the “K D of GABARAP lower compared to LC3B / specificity GABARAP over LC3B” value (GABARAP; listed as PLEKHM1‐LIR peptide) was “approximately 11 fold” and the “effect on endogenous PLEKHM1:GABARAP interaction” value [2] was “blocked the interaction”. The “exchange behaviour upon titration, LC3 subfamily” value [3] was “intermediate exchange”, the ΔH (LC3C; VP-ITC, one-site model, 0.4 mM peptide into 0.020 mM protein, 50 mM Na2HPO4, 100 mM NaCl) was -8.3 ± 0.2 kcal/mol and the KA (LC3C) was 0.29 ± 0.02 ×10^6 M^−1. The “N (number of binding sites)” value (LC3C) was 0.99 ± 0.02, the ΔG (LC3C) was -7.48 kcal/mol and the ΔS (LC3C) was −2.83 cal mol^−1 K^−1. For the same sequence, the “−T × ΔS” value (LC3C) was “+0.84 kcal mol^−1”.
